Assays:
guinea-pigs = assay: Tracheal potential difference (TPD) after intra-tracheal dosing in guinea pigs; type: in vivo; conditions: guinea pig; for TPD (mV): i.t. instillation, mean; for TPD Assessment Time after i.t. Treatment 1 hr / TPD Assessment Time after i.t. Treatment 3 hr / TPD Assessment Time after i.t. Treatment 5 hr / TPD Assessment Time after i.t. Treatment 8 hr / TPD Assessment Time after i.t. Treatment 24 hr / TPD Assessment Time after i.t. Treatment 48 hr: Table 3, mean ± sem
Text: Cystic fibrosis (CF) and chronic obstructive pulmonary disease (COPD) is dysregulated clearance of mucus across the cell layers lining the respiratory tract. A therapeutic strategy to treat these diseases is to inhibit these channels or the regulators of these channels in an effort to correct this mucus clearance defect. Potential difference is used in the clinic as a diagnostic tool for cystic fibrosis sufferers and for clinical trials. Small molecule inhibitors of these targets will enhance mucociliary clearance and thereby improve lung function and reduce the rate of exacerbations in cystic fibrosis (CF) and chronic obstructive pulmonary disease (COPD) patients. The guinea pig, unlike other rodents, has a lung structure which is roughly analogous to the human lung. For this reason, in terms of rodent models of lung function the guinea pig is often the model of choice for respiratory disease models including asthma, COPD and respiratory distress syndrome.
Preparation of Agar Bridges
Agar (3.5%) was dissolved in Hank's buffered salt solution (pH 7.4, 280-305 mosmkg_1H2O) by heating in a water bath at 100° C. A 30-40 cm length of polyethylene tubing, of which one end was bevelled at an angle of 20-60°, was then filled with the agar ensuring no air bubbles were formed or trapped within the tubing. The beveled tip of the tube was then dipped in the liquid agar, creating a small bulge. The exploring and reference electrodes constructed with the Hank's buffered salt solution/agar bridge were linked to a calomel half cell by immersion in 1M KCl.
Guinea pigs received a single dose of either the test article or vehicle instilled directly into the trachea. The animal was placed under short-term anesthesia using an inhaled isoflurane/nitrous oxide (N2O) 1:1 mixture (level 5/optimal for ˜10 sec.; 3.5/2 for 5 min.). At this suitable depth of anesthesia (loss of pedal and blink reflex), a single dose of either the test article, vehicle and/or positive control was instilled directly into the trachea. This was accomplished by very delicately inserted the 3″, 18 guage feeding tube into the trachea to preserve the potential difference of the mucosa. The guinea pig was allowed to recovered immediately; at times with the aid of supplemental O2. […] If there was apparent toxicity, animals were euthanized immediately and all observation was appropriately documented. As the animal was anesthetized during this treatment, no local anesthesia was necessary and there was no need to use a laryngoscope.
30 minutes prior to the 3 hr post dosing surgery each guinea pig received a dose of 0.4 mL of Midazolam-5 mg/mL, intra-peritoneal (i.p.) injection followed 25 minutes later with a 1 mL/kg of 50 mg/kg ketamine/6.5 mg/kg xylazine i.p. injection (previously prepared with 100 mg/mL ketamine and 25 mg/mL xylazine in Sterile Water for Injection USP mixed at 2:1:1 respectively). […] The trachea was exposed and visualized near the sternum using minimal blunt dissection. A lateral incision was made between the cartilaginous rings of the trachea close to the sternum. The beveled (distal) end of an exploring electrode was gently inserted into the lumen of the trachea moving in the direction towards the larynx, ensuring that spontaneous respiration was still possible. The beveled end of the reference electrode was positioned near the trachea in electrical contact with the flesh of the throat. A small volume of HBSS was applied into this region to ensure a good electrical contact. Potential difference was measured using a high impedance voltmeter (IsoMil) (5-0.5 cm increment measurement for verification—but only the initial placement value is recorded). The animal was terminated immediately after this procedure while still under anesthesia with an intra-cardiac dose of 0.5 mL of Euthasol.

[1] = Systemic (plasma) exposure after intratracheal dosing; type: in vivo, guinea pig; conditions: 1 mg/kg single dose, compared with monomeric GS-9411
Protocol: A comparison of systemic (plasma exposure) of monomeric compound GS-9411 and dimeric compound 28 after intratracheal dosing was performed (at 1 mg/kg single dose).

[2] = Table 2 controls, dose 300 ug/kg, vehicle −12.4
[3] = Table 1, dose 30 ug/kg, 3 hr after dosing
[4] = Table 1, dose 300 ug/kg, 3 hr after dosing
[5] = Table 1, dose 0.2 ug/kg, 3 hr after dosing

For `NC(=NCc1ccccc1)NC(=O)c1nc(Cl)c(N)nc1N` [Benzamil], the “TPD (mV)” value (guinea-pigs; [2]) was −6.2 mV, the “TPD Assessment Time after i.t. Treatment 1 hr” value (guinea-pigs; 300 μg/kg) was −8.9 (1) and the “TPD Assessment Time after i.t. Treatment 3 hr” value (guinea-pigs; 300 μg/kg) was −7.2 (1). The “TPD Assessment Time after i.t. Treatment 5 hr” value (guinea-pigs; 300 μg/kg) was −8.5 (1), the “TPD Assessment Time after i.t. Treatment 8 hr” value (guinea-pigs; 300 μg/kg) was −6.5 (1) and the “TPD Assessment Time after i.t. Treatment 24 hr” value (guinea-pigs; 300 μg/kg) was −4.8 (1). For the same compound, the “TPD Assessment Time after i.t. Treatment 48 hr” value (guinea-pigs; 300 μg/kg) was −10.0 ± 0.07 (2).
For `CN(C)C(=O)COC(=O)Cc1ccc(OC(=O)c2ccc(NC(=N)N)cc2)cc1` [Camostat], the “TPD (mV)” value (guinea-pigs; [2]) was −4.9 mV.
In the case of `N=C(NCCCCc1ccc(OCCOCCNC(=O)C(O)C(O)C(=O)NCCOCCOc2ccc(CCCCNC(=N)NC(=O)c3nc(Cl)c(N)nc3N)cc2)cc1)NC(=O)c1nc(Cl)c(N)nc1N` (stereo not drawn) [Compound 16], the “TPD (mV)” value (guinea-pigs; [3]) is reported as −6.30 mV.
With `N=C(NCCCCc1ccc(OCCOCCOC(=O)NCCCCNC(=O)OCCOCCOc2ccc(CCCCNC(=N)NC(=O)c3nc(Cl)c(N)nc3N)cc2)cc1)NC(=O)c1nc(Cl)c(N)nc1N` [Compound 28] the “TPD (mV)” value (guinea-pigs; [4]) was −4.00 mV, the “TPD Assessment Time after i.t. Treatment 1 hr” value (guinea-pigs; 30 μg/kg) was −6.7 ± 0.65 (3) and the “TPD Assessment Time after i.t. Treatment 3 hr” value (guinea-pigs; 30 μg/kg) was −6.4 ± 0.60 (3). The “TPD Assessment Time after i.t. Treatment 5 hr” value (guinea-pigs; 30 μg/kg) was −5.4 ± 1.03 (3), the “TPD Assessment Time after i.t. Treatment 8 hr” value (guinea-pigs; 30 μg/kg) was −5.1 ± 0.54 (3) and the “TPD Assessment Time after i.t. Treatment 24 hr” value (guinea-pigs; 30 μg/kg) was −5.9 ± 0.18 (3). For the same compound, the “TPD Assessment Time after i.t. Treatment 48 hr” value (guinea-pigs; 30 μg/kg) was −9.6 ± 1.43 (3), the “lower AUC (total area under the curve) versus GS-9411” value [1] was 5 fold and the “lower Cmax (maximal concentration) versus GS-9411” value [1] was 20 ×.
With `N=C(NCCCCc1ccc(OCCOCCNC(=O)NCCCCNC(=O)NCCOCCOc2ccc(CCCCNC(=N)NC(=O)c3nc(Cl)c(N)nc3N)cc2)cc1)NC(=O)c1nc(Cl)c(N)nc1N` [Compound 37] the “TPD (mV)” value (guinea-pigs; [3]) was −7.50 mV and the “TPD (mV)” value (guinea-pigs; [4]) was −5.50 mV.
In the case of `COC(=O)C(CCCC(NC(=O)OCCOCCOc1ccc(CCCCNC(=N)NC(=O)c2nc(Cl)c(N)nc2N)cc1)C(=O)OC)NC(=O)OCCOCCOc1ccc(CCCCNC(=N)NC(=O)c2nc(Cl)c(N)nc2N)cc1` (stereo not drawn) [Compound 46], the “TPD (mV)” value (guinea-pigs; [3]) is reported as −7.30 mV.
For `N=C(N)Nc1ccc(C(=O)Oc2ccc3cc(C(=N)NCCOCCOCCNC(=N)c4ccc5cc(OC(=O)c6ccc(NC(=N)N)cc6)ccc5c4)ccc3c2)cc1` [Compound 50], the “TPD (mV)” value (guinea-pigs; [4]) was −6.20 mV.
In the case of `N=C(N)Nc1ccc(C(=O)Oc2ccc(CC(=O)OCC(=O)NCCOCCOCCNC(=O)COC(=O)Cc3ccc(OC(=O)c4ccc(NC(=N)N)cc4)cc3)cc2)cc1` [Compound 53], the “TPD (mV)” value (guinea-pigs; [3]) is reported as −9.3 mV.
In the case of `N=C(NCCCCc1ccc(OCCOCCOCCOCCOCCO)cc1)NC(=O)c1nc(Cl)c(N)nc1N` [Compound 66], the “TPD (mV)” value (guinea-pigs; [3]) is reported as −7.80 mV.
For `N=C(NCCCCc1ccc(OCCOCCNC(=O)CCC(=O)NCCOCCOc2ccc(CCCCNC(=N)NC(=O)c3nc(Cl)c(N)nc3N)cc2)cc1)NC(=O)c1nc(Cl)c(N)nc1N` [Compound 67], the “TPD (mV)” value (guinea-pigs; [5]) was −7.0 mV.
In the case of `N=C(NCCCCc1ccc(OCCOCCOCCNC(=O)CCC(=O)NCCOCCOCCOc2ccc(CCCCNC(=N)NC(=O)c3nc(Cl)c(N)nc3N)cc2)cc1)NC(=O)c1nc(Cl)c(N)nc1N` [Compound 68], the “TPD (mV)” value (guinea-pigs; [5]) is reported as −6.9 mV.
In the case of `N=C(NCCCCc1ccc(OCCOCCOCCNC(=O)C(=O)NCCOCCOCCOc2ccc(CCCCNC(=N)NC(=O)c3nc(Cl)c(N)nc3N)cc2)cc1)NC(=O)c1nc(Cl)c(N)nc1N` [Compound 69], the “TPD (mV)” value (guinea-pigs; [3]) is reported as −6.3 mV.

Reference: US9656972B2, “Compounds for treatment of cystic fibrosis” (THE CALIFORNIA INSTITUTE FOR BIOMEDICAL RESEARCH, priority 2013, dated 2017)
